Measured values: US11040962B2, “Pesticidally active pyrazole derivatives” (SYNGENTA PARTICIPATIONS AG, priority 2017, dated 2021)

Tests used:
[1] = system: Euschistus heros; assay: Euschistus heros (neotropical brown stink bug) soybean leaf spray test; format: in vivo; conditions: 120 h, application rate 200 ppm, N2 nymphs, 5 days after infestation, vs untreated, read-out: effect in at least one of the two categories (mortality or growth inhibition)
Protocol: Euschistus heros (Neotropical Brown Stink Bug)
Soybean leaves on agar in 24-well microtiter plates were sprayed with aqueous test solutions prepared from 10′000 ppm DMSO stock solutions. After drying the leaves were infested with N2 nymphs. The samples were assessed for mortality and growth inhibition in comparison to untreated samples 5 days after infestation. The following compounds gave an effect of at least 80% in at least one of the two categories (mortality or growth inhibition) at an application rate of 200 ppm: 1, 2, 3, 7, 8, 9, 12, 13, 14, 15, 17, 18, 21, 25, 26, 27, 28 and 29.

[2] = system: Diabrotica balteata; assay: Diabrotica balteata (corn root worm) maize sprout spray test; format: in vivo; conditions: 96 h, application rate 200 ppm, L2 larvae, 4 days after infestation, vs untreated, read-out: effect in at least one of the two categories (mortality or growth inhibition)
Protocol: Diabrotica balteata, (Corn Root Worm)
Maize sprouts, placed on an agar layer in 24-well microtiter plates were treated with aqueous test solutions prepared from 10′000 ppm DMSO stock solutions by spraying. After drying, the plates were infested with L2 larvae (6 to 10 per well). The samples were assessed for mortality and growth inhibition in comparison to untreated samples 4 days after infestation. The following compounds gave an effect of at least 80% in at least one of the two categories (mortality or growth inhibition) at an application rate of 200 ppm: 1, 2, 3, 4, 7, 8, 9, 11, 12, 13, 14, 15, 16, 17, 18, 19, 20, 21, 27, 28 and 29.

[3] = system: Plutella xylostella; assay: Plutella xylostella (diamond back moth) artificial diet test; format: in vivo; conditions: 120 h, application rate 200 ppm, L2 larvae, 5 days after infestation, vs untreated, read-out: effect in at least one of the two categories (mortality or growth inhibition)
Protocol: Plutella xylostella (Diamond Back Moth):
24-well microtiter plates with artificial diet were treated with aqueous test solutions prepared from 10′000 ppm DMSO stock solutions by pipetting. After drying, the plates were infested with L2 larvae (10 to 15 per well). The samples were assessed for mortality and growth inhibition in comparison to untreated samples 5 days after infestation. The following compounds gave an effect of at least 80% in at least one of the two categories (mortality or growth inhibition) at an application rate of 200 ppm: 1, 2, 3, 4, 7, 8, 9, 10, 11, 12, 13, 14, 15, 16, 17, 18, 19, 20, 21, 22, 23, 24, 26, 27, 28 and 29.

[4] = system: Thrips tabaci; assay: Thrips tabaci (onion thrips) sunflower leaf disc spray test; format: in vivo; conditions: foliar, 144 h, application rate 200 ppm, population of mixed ages, 6 days after infestation
Protocol: Thrips tabaci (Onion Thrips):
(§1) Sunflower leaf discs were placed on agar in 24-well microtiter plates and sprayed with aqueous test solutions prepared from 10′000 ppm DMSO stock solutions. After drying the leaf discs were infested with a Thrips population of mixed ages. The samples were assessed for mortality 6 days after infestation.

[5] = system: Tetranychus urticae; assay: Tetranychus urticae (two-spotted spider mite) bean leaf disc spray test; format: in vivo; conditions: foliar, 192 h, application rate 200 ppm, 8 days after infestation, read-out: mortality on mixed population (mobile stages)
Protocol: Tetranychus urticae (Two-Spotted Spider Mite):
as §1, with “Bean” for “Sunflower”, “discs” for “discs were placed”, “were” for “and”, “mite” for “Thrips”, “on mixed population (mobile stages) 8” for “6”

[6] = system: Spodoptera littoralis; assay: Spodoptera littoralis (Egyptian cotton leaf worm) cotton leaf disc spray test; format: in vivo; conditions: foliar, 72 h, application rate 200 ppm, L1 larvae, 3 days after infestation, vs untreated, read-out: control (at least one of mortality, anti-feedant effect, growth inhibition)
Protocol: Spodoptera littoralis (Egyptian Cotton Leaf Worm)
Cotton leaf discs were placed on agar in 24-well microtiter plates and sprayed with aqueous test solutions prepared from 10′000 ppm DMSO stock solutions. After drying the leaf discs were infested with five L1 larvae. The samples were assessed for mortality, anti-feedant effect, and growth inhibition in comparison to untreated samples 3 days after infestation. Control of Spodoptera littoralis by a test sample is when at least one of mortality, anti-feedant effect, and growth inhibition is higher than the untreated sample.

| SMILES | melting point | percent effect (mortality or growth inhibition) at 200 ppm [1] | percent effect (mortality or growth inhibition) at 200 ppm [2] | percent effect (mortality or growth inhibition) at 200 ppm [3] | mortality at 200 ppm [4] | mortality at 200 ppm [5] | percent control (mortality, anti-feedant effect or growth inhibition) at 200 ppm [6] |
| --- | --- | --- | --- | --- | --- | --- | --- |
| CN(C(=O)c1cc(-c2cn(-c3c(C(F)(F)F)c(C(F)(F)C(F)(F)F)nn3C)nn2)sc1C#N)C1(C#N)CC1 [Compound 5, 2-cyano-N-(1-cyanocyclopropyl)-N-methyl-5-[1-[2-methyl-5-(1,1,2,2,2-pentafluoroethyl)-4-(trifluoromethyl)pyrazol-3-yl]triazol-4-yl]thiophene-3-carboxamide] | 185 to 187 °C | – | – | – | – | – | – |
| CCN(C(=O)c1cc(-c2cn(-c3c(C(F)(F)F)c(C(F)(F)C(F)(F)F)nn3C)nn2)sc1C#N)C1(C#N)CC1 [Compound 6, 2-cyano-N-(1-cyanocyclopropyl)-N-ethyl-5-[1-[2-methyl-5-(1,1,2,2,2-pentafluoroethyl)-4-(trifluoromethyl)pyrazol-3-yl]triazol-4-yl]thiophene-3-carboxamide] | 62 to 64 °C | – | – | – | – | – | – |
| CN(C(=O)c1cc(-c2cc(-c3c(C(F)(F)F)c(C(F)(F)C(F)(F)F)nn3C)no2)sc1C#N)C1(C#N)CC1 [Compound 17, 2-cyano-N-(1-cyanocyclopropyl)-N-methyl-5-[3-[2-methyl-5-(1,1,2,2,2-pentafluoroethyl)-4-(trifluoromethyl)pyrazol-3-yl]isoxazol-5-yl]thiophene-3-carboxamide] | – | ≥ 80% | ≥ 80% | ≥ 80% | ≥ 80% | ≥ 80% | ≥ 80% |
| Cn1nc(C(F)(F)C(F)(F)F)c(C(F)(F)F)c1-c1csc(-c2cc(C(=O)NC3CC3)c(C#N)s2)c1 [Compound 27, 2-cyano-N-cyclopropyl-5-[4-[2-methyl-5-(1,1,2,2,2-pentafluoroethyl)-4-(trifluoromethyl)pyrazol-3-yl]-2-thienyl]thiophene-3-carboxamide] | – | ≥ 80% | ≥ 80% | ≥ 80% | ≥ 80% | ≥ 80% | ≥ 80% |
| CN(C(=O)c1cc(-c2cc(-c3c(C(F)(F)F)c(C(F)(F)C(F)(F)F)nn3C)cs2)sc1C#N)C1CC1 [Compound 28, 2-cyano-N-cyclopropyl-N-methyl-5-[4-[2-methyl-5-(1,1,2,2,2-pentafluoroethyl)-4-(trifluoromethyl)pyrazol-3-yl]-2-thienyl]thiophene-3-carboxamide] | – | ≥ 80% | ≥ 80% | ≥ 80% | ≥ 80% | ≥ 80% | ≥ 80% |
| CCN(C(=O)c1cc(-c2cc(-c3c(C(F)(F)F)c(C(F)(F)C(F)(F)F)nn3C)cs2)sc1C#N)C1CC1 [Compound 29, 2-cyano-N-cyclopropyl-N-ethyl-5-[4-[2-methyl-5-(1,1,2,2,2-pentafluoroethyl)-4-(trifluoromethyl)pyrazol-3-yl]-2-thienyl]thiophene-3-carboxamide] | – | ≥ 80% | ≥ 80% | ≥ 80% | ≥ 80% | ≥ 80% | ≥ 80% |
